Patent publication US20010025105A1, “Certain substituted 1-aryl-3-piperazine-1'-yl propanones” (Molecular Geriatarics Corporation, priority 1997, published 2001)
Structures can show the parent of a compound that is named as a salt. Where two headings read alike, the source gives them in different places.

Columns and labels:
[1] = test system: microtubule cytoskeleton of human CG neuroblastoma cells; assay: Antimicrotubule activity, tubulin immunofluorescence microscopy; format: cell-based; conditions: 2 hr at 37° C., read-out: Concentration where microtubule destabilization occurs
Method: The compounds of the invention according to formula I are effective in destabilizing microtubules, thus are useful in treating certain neoplastic diseases. Indirect immunofluorescence microscopy using the monoclonal antibodies to tubulin is used herein to determine the activity of the compounds of this invention in promoting depolymerization of the microtubule cytoskeleton in cultured cells. The following assay was employed.
Cultured human CG neuroblastoma cells were seeded 1:3 from confluent cultures onto sterile 11×22 mm coverslips in 6 well tissue culture plates 16 hr prior to treatment. The following day, the tissue culture medium is removed and the cells are exposed to various concentrations of compounds of this invention in Krebs Ringer Hepes (KRH) buffer containing a final concentration of 0.5% DMSO as carrier. Incubations were performed at 37° C. in a humidified 5% CO2 atmosphere for 2 hr. After incubation, the cells were fixed in 3% TEM grade formaldehyde in PBS for 45 min at room temperature.
To visualize the effects of the compounds of the invention on the microtubule cytoskeleton, the cells were processed for tubulin immunofluorescence. Briefly, the cells were permeabilized in 0.5% Triton-X 100 in PBS for 5 min. The cells were washed 2× with PBS and aldehydes reduced using 0.5 mg/ml NaBH4 in PBS for 5 min. Subsequently, the cells were blocked for 10 min in 1.5% BSA and 1.5% nonfat dry milk in PBS (blocking solution, BS) for 10 min. The cells were then incubated for 30 min at 37° C. with the monoclonal antibody Tu27B which recognizes b-tubulin (dilution 1:20 in BS). Subsequently, the cells were washed 2× in PBS and once in BS. The cells were then incubated for 30 min at 37° C. with sheep antimouse IgG conjugated to FITC. After incubation, the cells were washed 2× in PBS and once in BS and incubated for 30 min at 37° C. with rabbit antisheep IgG conjugated to FITC. The cells were rinsed in PBS, counterstained with Hoechst 33285 in PBS (1 μg/ml), and rinsed in PBS. The coverslips were mounted in 9:1 glycerol:PBS containing 1 mg/ml p-phenylenediamine and sealed with nail polish.
The cells were viewed using a Jenalumar epifluorescence microscope equipped with the proper filters for Fluorescein Isothiocyanate (FITC) excitation and emission. Lack of effect of a compound is evidenced by the presence of an intact microtubule network in interphase cells, or a mitotic spindle in dividing cells. Antineoplastic compounds of the invention at effective doses result in the disappearance of microtubules in both interphase and mitotic cells.

[2] = test system: TG3 immunoreactivity in OKA treated MSN1a cells; assay: MSN1a cell culture model, ELISA with TG3 antibody, okadaic acid treated cells; format: cell-based, human; conditions: 1 μM OKA, 2 hrs at 37° C., read-out: IC50 for inhibition of TG3 immunoreactivity in OKA treated MSN1a cells
Method: This assay can thus be used to determine whether a drug is capable of preventing or intervening in AD by attenuating the production of abnormally phosphorylated paired helical filament epitopes associated with AD. To determine whether a drug is capable of preventing or intervening in AD activity, the MSN1a cells containing tau and associated proteins are treated with OKA capable of greatly increasing immunoreactivity of the MSN1a cells with AD specific monoclonal antibodies. Then, either prior to or concomitantly with OKA treatment, a compound of the present invention is added to the culture. If the compound prevents the induction of the AD epitopes in the MSN1a cells treated with OKA, then it is said to have anti-AD activity. If the AD-specific antibodies are highly reactive with the neuroblastoma cells following OKA treatment in the presence of compound, then the compound is said to be ineffectual against AD.
The MSN1a human neuroblastoma line was subcloned from a population of MSN cells obtained from the laboratory of Dr. Peter Davies (Albert Einstein College of Medicine, New York, N.Y.). Cells were grown and maintained in flasks in RPMI 1640 medium, supplemented with 15% fetal calf serum, 100 U/ml penicillin, 100 U/ml Streptomycin, 0.5 ug/ml fungizone under 7.5% CO2 at 37° C.
Stock solutions of drugs were prepared by dissolving the anhydrous powders to final concentrations of either 10 or 20 mM in 50% aqueous or 100% dimethyl sulfoxide (DMSO), respectively. Working solutions of drugs were prepared by dilution of the stock solutions with Kreb's Ringer in Hepes buffer (KRH) (128 mM NaCl, 5 mM KCl, 2.5 mM CaCl2 1.2 mM MgSO4, 1 mM Na2HPO4, 10 mM dextrose, 20 mM Hepes, pH 7.4). OKA is maintained as a 1 mM stock solution in DMSO prior to dilution to 4 μM in KRH.
MSN cells grown in 225 cm^2 flasks are removed from the incubator, their medium decanted and replaced with 50 ml pre-warmed KRH. The cells are harvested by scraping prior to sedimentation at 1000 rpm for 5 min. The supernatants are discarded and the cell pellets are resuspended, the cells counted and diluted to a density of 2×10^4 cells/[…]. The cells are then plated in a 96 well plate at 50 μl/well and 25 μl of 4 μM OKA and 25 μl of drug are then added to the appropriate wells; the entire 96 well plate is then incubated for 2 hrs at 37° C. Depending on the dilution of drug added, this yields individual wells containing 1 μM OKA, 0-64 μM drug and 2×10^4 cells in 0.26% DMSO in KRH. The incubation is terminated by the addition of 20 μl of 6X extraction buffer and immediate freezing at −80° C. for at least one hr. The 6X extraction buffer contains: 25 mM Tris-HCl, pH 7.6, 150 mM NaCl, 5 mM EDTA, 24 mM β-glycerol phosphate, 10 μg/ml APMSF (4-amidinophenylmethane-sulfonyl flouride), and 2.5 μg/ml each of leupeptin, aprotinin, and pepstatin. The plates are thawed in a 37° C. water bath and 20 μl of cell lysate is added to a replica well in an ELISA plate that already contains 80 μl of coating buffer (15 mM Na2CO3 and 35 mM NaHCO3, pH 9.6). The plates are allowed to coat overnight at 4° C. The plates are washed four times with deionized water and then blocked for 30 min at 37° C. with 200 μl/well pre-warmed 1% bovine serum albumin in 10 mM Tris-HCl, pH 7.4, 150 mM NaCl, 3 mM NaN3 (BSA-TBS). After the blocking solution is removed, 100 μl/well of an appropriate dilution of pre-warmed primary antibody (eg., TG3 or PHF-1) in BSA-TBS is added and incubated at 37° C. for 30 min. Incubation is terninated by washing four times in deionized water at which time 100 μl of an appropriate dilution of pre-warmed secondary antibody (conjugated to alkaline phosphatase) in BSA-TBS is added to each well in the ELISA plate. Incubation is performed for 30 min at 37° C. followed by washing 4 times with deionized water. […] of prewarmed chromogenic substrate (1 mg/mnl p-nitrophenyl phosphate in 10% diethanolamine, 3 mM NaN3, 0.5 mM MgCl2, pH 9.8) is added and the plate incubated for 30 min at 37° C. […]

[3] = test system: Streptococcus pneumoniae SRI 1167; assay: Agar disc diffusion assay; format: cell-based; conditions: 240 ug/disc, about 24 hr at 37° C., + = zone too large to measure; for zone of inhibition at 240 µg/disc: Streptococcus pneumoniae, SRI1167, read-out: Diameter of the zone of inhibition, S. pneumoniae
Method: (§1) The activity of the compounds is determined using the following assay. The compound is dissolved in DMSO at a concentration of 6 mg/ml and then diluted with water to a final concentration of 3 mg/ml in 50% DMSO (% DMSO was shown not to be inhibitory to the test organisms). An aliquot (0.08 ml) of each drug solution was transferred to filter paper discs (12.7 mm diameter, Scmeicherand Schuell) for use in the agar diffusion assay. The concentration of each drug on the filter paper disc was 240 ug/disc. The test organisms included the following: Gram-positive aerobes (Staphylococcus aureus SRI 1323, Streptococcus pneumoniae SRI 1167); Gram-negative aerobe (Proteus vulgaris SRI 180); and the yeast Candida albicans SRI 523. An agar disc diffusion assay was used to evaluate the antimicrobial activity of the test compounds. Briefly, cultures were prepared from 16-20 hr agar slant cultures by inoculating in physiological saline to a turbidity equivalent to a #0.5 McFarland turbidity standard for the bacteria and a #3 McFarland standard for C. albicans. The surface of Mueller-Hinton agar (15×100 mm plates, mm) were evenly inoculated with each standardized culture using a cotton swab. Filter paper discs containing the drug concentration listed above were then placed on the inoculated agar plates along with a disc containing the solvent used to dissolve each drug. The plates were incubated at 37° C. for about 24 hr and the diameters of the zones of inhibition measured with a vernier caliper. Positive control drugs consisted of streptomycin for use with the bacterial strains and 5-fluorocytosine for use with C. albicans. The positive control drugs were assayed as described above for the compounds of the present invention using the same concentration.

[4] = test system: Staphylococcus aureus SRI 1323; assay: Agar disc diffusion assay; format: cell-based; conditions: 240 ug/disc, about 24 hr at 37° C.; for zone of inhibition at 240 µg/disc: Staphylococcus aureus, SRI1323, read-out: Diameter of the zone of inhibition, S. aureus
Method: as §1

[5] = test system: Proteus vulgaris SRI 180; assay: Agar disc diffusion assay; format: cell-based; conditions: 240 ug/disc, about 24 hr at 37° C., 0 = no measurable zone; for zone of inhibition at 240 µg/disc: Proteus vulgaris, SRI180, read-out: Diameter of the zone of inhibition, P. vulgaris
Method: as §1

[6] = test system: Candida albicans SRI 523; assay: Agar disc diffusion assay; format: cell-based; conditions: 240 ug/disc, about 24 hr at 37° C.; for zone of inhibition at 240 µg/disc: Candida albicans, SRI523, read-out: Diameter of the zone of inhibition, C. albicans
Method: as §1

SMILES	Diameter of the zone of inhibition, S. aureus [4]	Diameter of the zone of inhibition, C. albicans [6]	Diameter of the zone of inhibition, P. vulgaris [5]	Diameter of the zone of inhibition, S. pneumoniae [3]	also measured
O=C(CCN1CCN(Cc2ccccc2)CC1)c1cc2ccccc2o1 [Example 10, 1-(Benzofur-2″-yl)-3-(4′-benzyl-1′-piperazinyl)-1-propanone dihydrochloride]					minimal effective concentration ([1]; Neuroblastoma cell): 20 µM; IC50 ([2]; Homo sapiens): 6 µM
Cl.Cl.O=C(CCN1CCN(Cc2ccccc2)CC1)c1cc([N+](=O)[O-])c(Cl)s1 [Example 95, 1-(5″-Chloro-4″-nitro-2″-thienyl)-3-(4′-benzyl-1′-piperazinyl)-1-propanone dihydrochloride]					minimal effective concentration [1]: 20 µM; IC50 [2]: 2.8 µM
[H]/N=C(/N)N[C@H]1[C@H](O)[C@@H](O)[C@H](O[C@@H]2O[C@@H](C)[C@](O)(C=O)[C@H]2O[C@@H]2O[C@@H](CO)[C@H](O)[C@@H](O)[C@@H]2NC)[C@@H](N/C(N)=N\[H])[C@@H]1O [streptomycin, reference compound]					zone of inhibition at 240 µg/disc [3]: 39.8 mm; zone of inhibition at 240 µg/disc [4]: 28.4 mm; zone of inhibition at 240 µg/disc [5]: 37.6 mm
Cl.Cl.O=C(CCN1CCN(Cc2ccccc2)CC1)c1csc([N+](=O)[O-])c1 [Example 80, 1-(5″-Nitro-3″-thienyl)-3-(4′-benzyl-1′-piperazinyl)-1-propanone dihydrochloride]	17.2 mm	14.5 mm	13.8 mm		IC50 [2]: 5.7 µM
Nc1nc(=O)[nH]cc1F [5-fluorocytosine, reference compound]					zone of inhibition at 240 µg/disc [6]: 33.5 mm
O=C(CCN1CCN(C(=O)c2sc3ccccc3c2Cl)CC1)c1ccc(Br)s1 [Example 86, 1-(5″-Bromo-2″-thienyl)-3-[4′-(3′″-chlorobenzo[b]-2′″-thienoyl)-1′-piperazinyl]-1-propanone dihydrochloride]					zone of inhibition at 240 µg/disc [3]: 19.3 mm; zone of inhibition at 240 µg/disc [4]: 16.2 mm; zone of inhibition at 240 µg/disc [6]: 17.3 mm; zone of inhibition at 240 µg/disc [5]: 13.9 mm
Cl.Cl.O=C(CCN1CCN(Cc2ccccc2)CC1)c1ccc(F)c(Br)c1 [Example 25, 1-(p-Fluoro-m-bromophenyl)-3-(4′-benzyl-1′-piperazinyl)-1-propanone dihydrochloride]	27.5 mm	26.0 mm	16.0 mm	36.3 mm	
Cl.O=C(CCN1CCN(C(=O)c2ccccc2C(F)(F)F)CC1)c1ccccc1F [Example 43]	17.7 mm	22.5 mm	15.9 mm	25.3 mm	
Cl.Cl.O=C(CCN1CCN(C(c2ccccc2)c2ccc(Cl)cc2)CC1)c1ccc(Br)s1 (stereo not shown) [Example 78, 1(5″-Bromo-2″-thienyl)-3-[4′-(1′″-p-chlorophenyl-1′″-phenylmethyl)-1′-piperazinyl]-1-propanone dihydrochloride]	16.2 mm	15.2 mm	14.5 mm	19.7 mm	
